Measured values taken from patent US9358290B2, “Pharmaceutical formulations” (MOREX DEVELOPMENT PARTNERS LLP, priority 2012, dated 2016).
Several values for one entry are separate records, joined by “and”; a condition that tells them apart may be missing. Identical values can stand only once. Marks after values point to notes of the source that are not given here.

Tests used:
Format in all cases: physicochemical
[1] = Initial solubility screening in water-miscible solvents (filtrate assayed by UV absorbance at 420.6 nm)
Experimental: (§1) Initial solubility screening tests were therefore carried out to determine the solubility of MTL-005 in various water-miscible solvents. The screening tests were carried out by dissolving the MTL-005 in the test solvent, filtering the resulting solution to remove any undissolved materials and assaying the filtrate by measuring the UV absorbance at 420.6 nm.

[2] = Solubility in mixtures of DMA and water
Experimental: as §1
In order to assess the suitability of DMA solutions of MTL-005 for administration by aqueous infusion, the solubility of MTL-005 in mixtures of DMA and water was assessed using the assay method described above.

[3] = Solubility in DMA/co-solvent mixtures
Experimental: as §1
According to the invention, water-miscible co-solvents are added to the DMA in order to improve the solubility of the MTL-005 when the formulation is diluted with water. Tests were therefore carried out to determine the solubility of MTL-005 in various DMA/co-solvent mixtures using the methods described above.
In the first series of tests, approximately 50 mg/ml MTL-005 was added to a range of cosolvent vehicles. A solubility in the region of 50 mg/ml was obtained for a range of vehicles (see results in column 1 in Table 3 below), therefore it could not be confirmed that saturated solutions were obtained. The work was therefore repeated at a higher MTL-005 loading of 150 mg/ml (see results in column 2 of Table 3).

Stability studies = experiment: Stability studies

For “Copper meso-5,15-bis[3-[(1,2-dicarba-closo-dodecaboranyl)-methoxy]-phenyl]-meso-10,20-dinitroporphyrin [MTL-005]”, which “Total MTL-005 dissolved” value ([1]; solvent: Absolute ethanol) is on record?
The value was 0.089 mg/mL.

And the “Total MTL-005 dissolved” value ([1]; solvent: Benzyl alcohol)?
Its value is 0.91 mg/mL.

And the “Total MTL-005 dissolved” value ([1]; solvent: Cremophor EL 5% aq)?
Its value is 0.24 mg/mL.

And the “Total MTL-005 dissolved” value ([1]; solvent: Cremophor EL 10% aq)?
Its value is 0.27 mg/mL.

And the “Total MTL-005 dissolved” value ([1]; solvent: Cremophor EL 10% aq(heated))?
Its value is 1.65 mg/mL.

And the “Total MTL-005 dissolved” value ([1]; solvent: DMA 10% w/v aq)?
The value was 0.13 mg/mL.

What about the “Total MTL-005 dissolved” value ([1]; solvent: DMA 10%, Cremophor EL 5% aq) of the same substance?
Its value is 0.30 mg/mL.

What about the “Total MTL-005 dissolved” value ([1]; solvent: DMA diluted 1 in 10 with Solutol HS15 20% w/v aq) of the same substance?
Its value is 1.44 mg/mL.

And the “Total MTL-005 dissolved” value ([1]; solvent: Deionised water)?
Its value is 0.001 mg/mL.

What about the “Total MTL-005 dissolved” value ([1]; solvent: Glycofurol) of the same substance?
Its value is 8.68 mg/mL.

What about the “Total MTL-005 dissolved” value ([1]; solvent: Macrogol 300) of the same substance?
Its value is 2.60 mg/mL.

And the “Total MTL-005 dissolved” value ([1]; solvent: N,N-Dimethylacetamide (DMA), result close to concentration in sample, solubility may be greater)?
The value was 74.08* mg/ml.

What about the “Total MTL-005 dissolved” value ([1]; solvent: Polysorbate 20 (5% w/v aq)) of the same substance?
The value was 0.27 mg/mL.

And the “Total MTL-005 dissolved” value ([1]; solvent: Polysorbate 20 (10% w/v aq))?
The value was 0.13 mg/mL.

What about the “Total MTL-005 dissolved” value ([1]; solvent: Polysorbate 20 (20% w/v aq)) of the same substance?
Its value is 0.13 mg/mL.

What about the “Total MTL-005 dissolved” value ([1]; solvent: Polysorbate 20, result close to concentration in sample, solubility may be greater) of the same substance?
Its value is 5.88* mg/ml.

What about the “Total MTL-005 dissolved” value ([1]; solvent: Polysorbate 80 5%, Cremophor EL 5% aq) of the same substance?
The value was 0.28 mg/mL.

And the “Total MTL-005 dissolved” value ([1]; solvent: Polysorbate 80 5%, DMA 10% aq)?
Its value is 0.45 mg/mL.

And the “Total MTL-005 dissolved” value ([1]; solvent: Polysorbate 80 5%, DMA 10%, Cremophor EL 5% aq)?
The value was 0.35 mg/mL.

What about the “Total MTL-005 dissolved” value ([1]; solvent: Polysorbate 80 (5% w/v aq)) of the same substance?
Its value is 0.15 mg/mL and 0.22 mg/mL.

What about the “Total MTL-005 dissolved” value ([1]; solvent: Polysorbate 80 (10% w/v aq)) of the same substance?
Its value is 0.25 mg/mL.

And the “Total MTL-005 dissolved” value ([1]; solvent: Polysorbate 80 (20% w/v aq))?
The value was 0.38 mg/mL.

And the “Total MTL-005 dissolved” value ([1]; solvent: Propylene glycol)?
The value was 0.019 mg/mL.

What about the “Total MTL-005 dissolved” value ([1]; solvent: Solutol HS15) of the same substance?
The value was 11.50 mg/mL.

What about the “Total MTL-005 dissolved” value ([1]; solvent: Solutol HS15 (5% w/v aq)) of the same substance?
Its value is 0.08 mg/mL.

What about the “Total MTL-005 dissolved” value ([1]; solvent: Solutol HS15 (10% w/v aq)) of the same substance?
The value was 0.10 mg/mL.

And the “Total MTL-005 dissolved” value ([1]; solvent: Solutol HS15 (20% w/v aq))?
Its value is 0.16 mg/mL.

And the “Total MTL-005 dissolved” value ([1]; solvent: Soyabean oil)?
Its value is 0.59 mg/mL.

What about the “Total MTL-005 dissolved” value ([1]; solvent: pH 7 Britton Robinson buffer) of the same substance?
Its value is 0.0016 mg/mL.

What about the Solubility ([2]; vehicle: 20% DMA/80% Water, 5 mg/ml added) of the same substance?
Its Solubility is less than 50 µg/mL.

What about the Solubility ([2]; vehicle: 40% DMA/60% Water, 5 mg/ml added) of the same substance?
Its Solubility is less than 50 µg/mL.

What about the Solubility ([2]; vehicle: 60% DMA/40% Water, 20 mg/ml added) of the same substance?
Its Solubility is less than 50 µg/mL.

And the Solubility ([2]; vehicle: 80% DMA/20% Water, 18 mg/ml added)?
Its Solubility is less than 50 µg/mL.

And the Solubility ([2]; vehicle: 100% DMA, 92.5 mg/ml added)?
The Solubility was greater than 90000 µg/mL.

What about the “Total MTL-005 dissolved (50 mg/ml added)” value ([3]; DMA 60%, Macrogol 300 40%) of the same substance?
The value was 34 mg/mL.

What about the “Total MTL-005 dissolved (50 mg/ml added)” value ([3]; DMA 60%, Propylene Glycol 40%) of the same substance?
Its value is 4 mg/mL.

And the “Total MTL-005 dissolved (50 mg/ml added)” value ([3]; DMA 60%, Solutol HS 40%, may not be saturated)?
The value was 51 mg/mL.

What about the “Total MTL-005 dissolved (150 mg/ml added)” value ([3]; DMA 60%, Solutol HS 40%) of the same substance?
The value was 58 mg/mL.

And the “Total MTL-005 dissolved (50 mg/ml added)” value ([3]; DMA 60%, Tetraglycol 40%, may not be saturated)?
The value was 53 mg/mL.

And the “Total MTL-005 dissolved (150 mg/ml added)” value ([3]; DMA 60%, Tetraglycol 40%)?
The value was 94 mg/mL.

And the “Total MTL-005 dissolved (50 mg/ml added)” value ([3]; DMA 60%, Tween 20 40%, may not be saturated)?
The value was 47 mg/mL.

And the “Total MTL-005 dissolved (150 mg/ml added)” value ([3]; DMA 60%, Tween 20 40%)?
The value was 37 mg/mL.

What about the “Total MTL-005 dissolved (150 mg/ml added)” value ([3]; DMA 70%, Solutol HS 20%, Macrogol 300 10%) of the same substance?
Its value is 74 mg/mL.

What about the “Total MTL-005 dissolved (150 mg/ml added)” value ([3]; DMA 70%, Solutol HS 30%) of the same substance?
The value was 70 mg/mL.

What about the “Total MTL-005 dissolved (50 mg/ml added)” value ([3]; DMA 80%, Macrogol 300 10%, Propylene Glycol 10%, may not be saturated) of the same substance?
Its value is 48 mg/mL.

And the “Total MTL-005 dissolved (50 mg/ml added)” value ([3]; DMA 80%, Macrogol 300 10%, Tetraglycol 10%, may not be saturated)?
The value was 49 mg/mL.

And the “Total MTL-005 dissolved (50 mg/ml added)” value ([3]; DMA 80%, Macrogol 300 20%, may not be saturated)?
Its value is 50 mg/mL.

What about the “Total MTL-005 dissolved (150 mg/ml added)” value ([3]; DMA 80%, Macrogol 300 20%) of the same substance?
Its value is 76 mg/mL.

And the “Total MTL-005 dissolved (50 mg/ml added)” value ([3]; DMA 80%, Propylene Glycol 20%)?
Its value is 27 mg/mL.

What about the “Total MTL-005 dissolved (50 mg/ml added)” value ([3]; DMA 80%, Solutol HS 10%, Macrogol 300 10%, may not be saturated) of the same substance?
The value was 49 mg/mL.

What about the “Total MTL-005 dissolved (150 mg/ml added)” value ([3]; DMA 80%, Solutol HS 10%, Macrogol 300 10%) of the same substance?
Its value is 95 mg/mL.

What about the “Total MTL-005 dissolved (50 mg/ml added)” value ([3]; DMA 80%, Solutol HS 10%, Propylene Glycol 10%, may not be saturated) of the same substance?
The value was 50 mg/mL.

What about the “Total MTL-005 dissolved (150 mg/ml added)” value ([3]; DMA 80%, Solutol HS 10%, Propylene Glycol 10%) of the same substance?
The value was 58 mg/mL.

What about the “Total MTL-005 dissolved (50 mg/ml added)” value ([3]; DMA 80%, Solutol HS 10%, Tetraglycol 10%, may not be saturated) of the same substance?
Its value is 49 mg/mL.

And the “Total MTL-005 dissolved (150 mg/ml added)” value ([3]; DMA 80%, Solutol HS 10%, Tetraglycol 10%)?
Its value is 113 mg/mL.

And the “Total MTL-005 dissolved (50 mg/ml added)” value ([3]; DMA 80%, Solutol HS 20%, may not be saturated)?
Its value is 49 mg/mL.

And the “Total MTL-005 dissolved (150 mg/ml added)” value ([3]; DMA 80%, Solutol HS 20%)?
Its value is 115 mg/mL.

What about the “Total MTL-005 dissolved (50 mg/ml added)” value ([3]; DMA 80%, Tetraglycol 10%, Propylene Glycol 10%, may not be saturated) of the same substance?
Its value is 50 mg/mL.

What about the “Total MTL-005 dissolved (50 mg/ml added)” value ([3]; DMA 80%, Tetraglycol 20%, may not be saturated) of the same substance?
Its value is 52 mg/mL.

And the “Total MTL-005 dissolved (150 mg/ml added)” value ([3]; DMA 80%, Tetraglycol 20%)?
Its value is 131 mg/mL.

And the “Total MTL-005 dissolved (50 mg/ml added)” value ([3]; DMA 80%, Tween 20 10%, Macrogol 300 10%, may not be saturated)?
Its value is 50 mg/mL.

What about the “Total MTL-005 dissolved (150 mg/ml added)” value ([3]; DMA 80%, Tween 20 10%, Macrogol 300 10%) of the same substance?
The value was 83 mg/mL.

And the “Total MTL-005 dissolved (50 mg/ml added)” value ([3]; DMA 80%, Tween 20 10%, Propylene Glycol 10%, may not be saturated)?
The value was 49 mg/mL.

What about the “Total MTL-005 dissolved (150 mg/ml added)” value ([3]; DMA 80%, Tween 20 10%, Propylene Glycol 10%) of the same substance?
Its value is 79 mg/mL.

What about the “Total MTL-005 dissolved (50 mg/ml added)” value ([3]; DMA 80%, Tween 20 10%, Solutol HS 10%, may not be saturated) of the same substance?
Its value is 52 mg/mL.

What about the “Total MTL-005 dissolved (50 mg/ml added)” value ([3]; DMA 80%, Tween 20 10%, Tetraglycol 10%, may not be saturated) of the same substance?
The value was 48 mg/mL.

And the “Total MTL-005 dissolved (150 mg/ml added)” value ([3]; DMA 80%, Tween 20 10%, Tetraglycol 10%)?
Its value is 101 mg/mL.

And the “Total MTL-005 dissolved (50 mg/ml added)” value ([3]; DMA 80%, Tween 20 20%, may not be saturated)?
Its value is 51 mg/mL.

What about the “Total MTL-005 dissolved (150 mg/ml added)” value ([3]; DMA 80%, Tween 20 20%) of the same substance?
Its value is 91 mg/mL.

And the “Stability as a dry powder” value (Stability studies; dry powder)?
The value was “relatively stable as a dry powder”.

What about the Stability in solution (Stability studies; in solution) of the same substance?
The Stability in solution was “not stable for extended periods in solution”.
